Measured values reported in patent US20080234132A1, “Microcin B17 Analogs And Methods For Their Preparation And Use” (priority 2004, published 2008).

Experiments:
Human topoisomerase I = target: T1, Human topoisomerase I (Homo sapiens, UniProt P11387); assay: Human topoisomerase I-mediated relaxation assay; format: biochemical; details: read-out: Topo I Human IC50
T1 construct: purchased TopoGEN Inc. (Port Orange, Fla., USA)
T1 sequence (P11387 1-765): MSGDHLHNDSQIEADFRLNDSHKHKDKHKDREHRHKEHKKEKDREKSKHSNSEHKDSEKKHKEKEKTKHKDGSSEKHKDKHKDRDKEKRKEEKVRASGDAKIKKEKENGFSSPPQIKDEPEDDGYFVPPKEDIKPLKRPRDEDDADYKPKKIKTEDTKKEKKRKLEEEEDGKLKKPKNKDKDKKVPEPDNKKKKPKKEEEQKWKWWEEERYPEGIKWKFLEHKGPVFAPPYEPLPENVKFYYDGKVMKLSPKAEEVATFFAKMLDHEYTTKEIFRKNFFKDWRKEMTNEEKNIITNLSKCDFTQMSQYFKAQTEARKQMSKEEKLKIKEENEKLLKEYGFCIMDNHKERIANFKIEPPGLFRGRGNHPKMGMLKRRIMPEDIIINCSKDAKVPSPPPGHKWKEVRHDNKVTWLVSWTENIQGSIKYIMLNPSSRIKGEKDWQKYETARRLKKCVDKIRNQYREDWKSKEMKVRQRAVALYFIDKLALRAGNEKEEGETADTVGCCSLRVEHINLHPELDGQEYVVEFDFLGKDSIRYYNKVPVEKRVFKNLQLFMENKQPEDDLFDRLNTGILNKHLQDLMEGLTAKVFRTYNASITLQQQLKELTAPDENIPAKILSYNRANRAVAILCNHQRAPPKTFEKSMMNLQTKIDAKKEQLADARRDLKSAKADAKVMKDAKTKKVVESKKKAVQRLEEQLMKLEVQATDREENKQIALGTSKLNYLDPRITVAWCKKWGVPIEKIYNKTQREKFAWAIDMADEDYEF
Protocol: Human topoisomerase I-mediated relaxation assays were performed as per the manufacturer's instructions. Topoisomerase I (2 nM) was added to reactions containing 10 mM of Tris.HCl, pH 7.9, 150 mM NaCl, 100 μM spermidine.HCl, 5% glycerol, 0.1% BSA, 4.6 nM of […] pBR322 DNA, and inhibitor where appropriate.
(§1) All in vitro reactions were incubated at 37° C. for 30 minutes. The DMSO concentration in each reaction was kept constant at 3.33%. Reactions were quenched with the addition of an equal volume of phenol/chloroform/isoamyl alcohol (25:24:1) and one tenth volume of loading buffer containing 40% sucrose, 100 mM Tris.HCl pH 7.5, 100 mM EDTA, 2 mg/mL bromophenol blue. The proteins were precipitated by vortexing, followed by centrifugation for 5 minutes at 16 000 g. The aqueous phase was loaded onto 1% agarose gels in Tris-acetate and were electrophoresed at 60 V for three hours in Tris-acetate buffer. The gels were stained in 1 μg/mL ethidium bromide. The gels were visualised using UV light and were documented and analysed using Syngene software.

HT-29 cells = assay: MTT cell viability assay, HT-29; format: cell-based, human; details: cell reads on: Active
Protocol: (§3) Human cell cultures were initiated from frozen cell stocks (the gift of Dr J. Gavrilovic, UEA). […] Both human cell lines form adherent cultures and were maintained at 37° C. in T25 culture vessels as 10 mL cultures in CO2 Independent Media containing 10% foetal bovine serum (EU approved), 4 mM L-glutamine, penicillin/streptomycin (Invitrogen). […] Media was renewed every three days.
(§4) After incubation with MTT and solubilization, the resulting coloured solution is quantified using a scanning spectrophotometer. […] Cell viability was then determined by addition of MTT reagent (20 μL) in each well, as per manufacturer's instructions and incubated for a further 4 hours. Solubilization solution (100 μL) was added per well and the plates incubated overnight at 37° C. The plates were read in a spectrophotometer (scanning from 500-650 nm, signal peak at 570 nm).

HeLa cells = assay: MTT cell viability assay, HeLa; format: cell-based, human; details: cell reads on: Active
Protocol: as §3, §4

E. coli = assay: In vivo E. coli activity (Table 5-C); format: cell-based; details: cell reads on: Active
Protocol: In vivo activity was tested using the bioassay developed by Sinha Roy, 1999, with some modifications. The Microcin-sensitive E. coli DH5α was used as the indicator strain. Lawns of cells were prepared by spreading 100 μL of a 10 mL LB culture grown at 37° C. overnight mixed with 3 mL of LSS, on LB+agar (10 g/L) plates. […] The plates were incubated at 37° C. overnight and halos of growth inhibition were qualitatively analyzed by determining their diameters (see FIG. 9).
Lawns of cells were prepared by spreading, on top of a LB+Agar plate, 3 ml of melted LSS medium (half-agar strength: 0.3 g Agar/50 ml LB) inoculated with 100 μl of a 10 ml LB overnight culture of E. coli cells grown at 37° C. Halo assays with MccB17 generally used a DH5α strain (Novagen) but the inventors used the standard E. coli strain (K12) because it is from this strain that the microcin B17-resistant mutant W751R was obtained. […] The plates were incubated at 37° C. overnight and growth inhibition was qualitatively analysed by measuring the diameter of each halo.
Haloassays were performed as described above.

E. coli Topoisomerase IV [1] = target: T2, E. coli Topoisomerase IV (Escherichia coli, UniProt P0AFI2+P20083); assay: Topoisomerase IV-mediated decatenation assay; format: biochemical; parameters: purchased John Innes Enterprises
T2 sequence (P20083 whole entry): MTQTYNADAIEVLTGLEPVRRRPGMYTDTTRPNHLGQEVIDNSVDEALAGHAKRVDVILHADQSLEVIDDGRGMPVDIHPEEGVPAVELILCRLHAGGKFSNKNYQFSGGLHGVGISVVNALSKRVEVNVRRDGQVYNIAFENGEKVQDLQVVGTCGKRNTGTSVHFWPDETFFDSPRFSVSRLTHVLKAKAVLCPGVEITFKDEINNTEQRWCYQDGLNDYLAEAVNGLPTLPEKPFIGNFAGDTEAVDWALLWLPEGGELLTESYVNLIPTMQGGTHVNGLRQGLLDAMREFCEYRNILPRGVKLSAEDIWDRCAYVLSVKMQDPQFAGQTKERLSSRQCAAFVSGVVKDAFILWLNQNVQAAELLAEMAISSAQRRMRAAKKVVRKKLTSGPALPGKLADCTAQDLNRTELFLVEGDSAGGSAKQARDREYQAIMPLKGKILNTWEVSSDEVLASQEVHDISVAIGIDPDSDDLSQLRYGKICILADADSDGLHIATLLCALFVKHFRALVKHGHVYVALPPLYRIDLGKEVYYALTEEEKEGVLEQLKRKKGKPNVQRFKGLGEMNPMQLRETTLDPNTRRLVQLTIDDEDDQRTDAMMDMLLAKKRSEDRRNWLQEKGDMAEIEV
T2 sequence (P0AFI2 whole entry): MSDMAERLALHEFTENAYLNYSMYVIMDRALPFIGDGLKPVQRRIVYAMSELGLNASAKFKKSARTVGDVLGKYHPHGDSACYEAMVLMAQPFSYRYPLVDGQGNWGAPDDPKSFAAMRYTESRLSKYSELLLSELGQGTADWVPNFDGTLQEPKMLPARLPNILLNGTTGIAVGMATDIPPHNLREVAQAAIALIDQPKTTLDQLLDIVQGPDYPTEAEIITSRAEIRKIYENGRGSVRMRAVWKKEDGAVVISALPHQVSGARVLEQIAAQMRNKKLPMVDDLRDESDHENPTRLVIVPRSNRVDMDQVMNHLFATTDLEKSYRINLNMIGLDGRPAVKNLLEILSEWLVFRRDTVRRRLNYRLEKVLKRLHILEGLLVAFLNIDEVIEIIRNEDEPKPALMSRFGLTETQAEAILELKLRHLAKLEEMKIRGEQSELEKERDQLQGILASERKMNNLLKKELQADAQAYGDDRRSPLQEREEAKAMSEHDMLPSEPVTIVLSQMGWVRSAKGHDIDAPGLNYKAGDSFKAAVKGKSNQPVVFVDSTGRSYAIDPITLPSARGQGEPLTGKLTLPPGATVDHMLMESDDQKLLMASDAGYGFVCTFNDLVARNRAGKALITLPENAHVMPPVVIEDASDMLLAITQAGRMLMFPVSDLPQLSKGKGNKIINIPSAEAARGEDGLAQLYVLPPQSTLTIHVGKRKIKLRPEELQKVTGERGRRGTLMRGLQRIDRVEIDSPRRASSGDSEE
Protocol: Topoisomerase IV-mediated relaxation assays and decatenation assays were performed as previously described (see Peng and Marians, 1993). Relaxation assays contained topoisomerase IV (20 nM), 40 mM Tris.HCl pH 7.5 at 30° C., 6 mM MgCl2, 10 mM DTT, 1 mM spermidine.HCl, 20 mM KCl, 1 mM ATP, 0.5 mg/mL BSA, 4.6 nM of supercoiled pBR322 DNA and inhibitor where appropriate. Decatenation assays contained topoisomerase IV (4 nM), 40 mM Tris HCl pH 7.5 at 30° C., 6 mM MgCl2, 10 mM DTT, 1 mM spermidine.HCl, 100 mM potassium glutamate, 0.5 mM ATP, 0.5 mg/mL BSA, 200 ng of kinetoplast DNA, and inhibitor where appropriate.
as §1

E. coli Topoisomerase IV [2] = target: T2, E. coli Topoisomerase IV; assay: biochemical; format: biochemical; parameters: purchased John Innes Enterprises (Norwich, UK)
Protocol: Topoisomerase IV-mediated relaxation assays and decatenation assays were performed as previously described (see Peng and Marians, 1993). […] Decatenation assays contained topoisomerase IV (4 nM), 40 mM Tris HCl pH 7.5 at 30° C., 6 mM MgCl2, 10 mM DTT, 1 mM spermidine.HCl, 100 mM potassium glutamate, 0.5 mM ATP, 0.5 mg/mL BSA, 200 ng of kinetoplast DNA, and inhibitor where appropriate.

Human topoisomerase IIα [3] = target: T3, Human topoisomerase IIα (Homo sapiens, UniProt P11388); assay: Human Topoisomerase IIα-mediated relaxation assay; format: biochemical; parameters: purchased TopoGEN Inc. (Port Orange, Fla., USA); details: read-out: Topo IIα Human, R (relaxation reaction) IC50
T3 sequence (P11388 whole entry): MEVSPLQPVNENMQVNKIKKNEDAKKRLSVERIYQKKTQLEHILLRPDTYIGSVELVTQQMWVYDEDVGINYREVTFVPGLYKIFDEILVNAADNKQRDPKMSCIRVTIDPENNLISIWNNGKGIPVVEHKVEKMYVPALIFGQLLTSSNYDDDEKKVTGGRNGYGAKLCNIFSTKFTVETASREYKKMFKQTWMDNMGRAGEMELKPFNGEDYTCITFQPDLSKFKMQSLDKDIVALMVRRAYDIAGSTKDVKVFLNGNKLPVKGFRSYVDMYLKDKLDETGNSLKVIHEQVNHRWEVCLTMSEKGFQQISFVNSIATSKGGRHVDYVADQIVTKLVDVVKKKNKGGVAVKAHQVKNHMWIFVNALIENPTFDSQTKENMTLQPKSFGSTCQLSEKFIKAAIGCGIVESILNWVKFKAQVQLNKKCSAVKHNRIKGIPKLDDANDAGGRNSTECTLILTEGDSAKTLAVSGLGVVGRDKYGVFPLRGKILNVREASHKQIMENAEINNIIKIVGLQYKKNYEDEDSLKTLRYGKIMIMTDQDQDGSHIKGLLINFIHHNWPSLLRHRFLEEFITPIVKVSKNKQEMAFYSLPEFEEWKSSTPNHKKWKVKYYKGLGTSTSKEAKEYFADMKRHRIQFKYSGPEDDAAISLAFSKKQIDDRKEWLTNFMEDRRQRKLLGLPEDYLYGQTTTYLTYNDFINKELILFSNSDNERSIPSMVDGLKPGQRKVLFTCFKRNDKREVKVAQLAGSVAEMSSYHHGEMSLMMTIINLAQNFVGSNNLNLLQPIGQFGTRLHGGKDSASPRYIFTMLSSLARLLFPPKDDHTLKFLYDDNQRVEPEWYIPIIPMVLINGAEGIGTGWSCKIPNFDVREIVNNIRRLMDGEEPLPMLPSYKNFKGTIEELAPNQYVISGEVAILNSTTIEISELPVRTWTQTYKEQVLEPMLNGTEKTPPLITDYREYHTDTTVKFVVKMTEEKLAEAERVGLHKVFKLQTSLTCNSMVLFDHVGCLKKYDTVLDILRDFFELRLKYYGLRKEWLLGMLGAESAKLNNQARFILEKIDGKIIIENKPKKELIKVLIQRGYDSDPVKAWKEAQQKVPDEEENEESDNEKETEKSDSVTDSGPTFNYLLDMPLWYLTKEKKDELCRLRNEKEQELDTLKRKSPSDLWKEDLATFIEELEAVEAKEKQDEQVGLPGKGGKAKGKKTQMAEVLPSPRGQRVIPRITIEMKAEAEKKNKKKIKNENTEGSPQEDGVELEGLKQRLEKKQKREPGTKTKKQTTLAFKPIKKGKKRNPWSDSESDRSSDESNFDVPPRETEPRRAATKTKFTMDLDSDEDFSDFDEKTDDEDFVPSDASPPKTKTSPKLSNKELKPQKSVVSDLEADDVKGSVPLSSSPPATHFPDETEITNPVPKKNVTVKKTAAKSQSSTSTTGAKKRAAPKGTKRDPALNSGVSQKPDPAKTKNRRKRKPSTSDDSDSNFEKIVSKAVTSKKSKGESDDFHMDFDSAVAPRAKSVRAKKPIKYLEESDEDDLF
Protocol: (§2) Human Topoisomerase IIα-mediated relaxation assays and decatenation assays were performed as per the manufacturer's instructions in a total of 20 μL. Relaxation assays contained Topoisomerase IIα (4.3 nM), 50 mM Tris.HCl pH 8,120 mM KCl, 10 mM MgCl2, 0.5 mM DTT, 0.5 mM ATP, 4.6 nM of supercoiled pBR322 DNA, and inhibitor where appropriate. Decatenation assays substituted the supercoiled DNA with 200 ng catenated kinetoplast DNA.
as §1

Human topoisomerase IIα [4] = target: T3, Human topoisomerase IIα; assay: Human Topoisomerase IIα decatenation assay; format: biochemical; parameters: purchased TopoGEN Inc. (Port Orange, Fla., USA); details: read-out: Topo IIα Human, D (decatenation reaction) IC50
Protocol: as §2, §1

## CC(C)(C)OC(=O)NCc1nc(C(=O)O)co1 [#6]
Human topoisomerase I
  IC50: > 300 µM
HT-29 cells
  In vivo HT29 Cells activity: Not
HeLa cells
  In vivo HeLa Cells activity: Not
E. coli
  In vivo E. coli activity, up to 400 μM: Not
E. coli Topoisomerase IV [1]
  Decatenation activity of topoisomerase IV, sensitivity: albeit weakly
E. coli Topoisomerase IV [2]
  Topo IV, D (decatenation reaction) IC50: weakly
E. coli Topoisomerase IV [2]; read-out: Topo IV, D (decatenation reaction) IC50
  IC50: 200 µM
Human topoisomerase IIα [3]
  IC50: > 250 µM
Human topoisomerase IIα [4]
  IC50: > 250 µM
